Data from the supplement of paper PMC10307832.

How the values were obtained:
Assay in all cases: relative viability (nuclei count vs DMSO), 5 days (fraction); higher = more cells survive
ABC-1 = system: ABC-1
Procedure, shortened: (§1)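 Lung cancer cell lines were pin-tool dosed in 1536-well plates on the day after seeding, with either a lone drug or a fixed anchor-drug dose plus five library-drug doses (not always all listed) in √10 steps. Nuclei were counted on 4× images after 5 days. Relative viability is the ratio of treated-well to vehicle-well nuclei counts, with each value a median of duplicate plates.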

CAL-12T = system: CAL-12T
Procedure, shortened: as §1

COR-L 105 = system: COR-L 105
Procedure, shortened: as §1

ChaGo-K-1 = system: ChaGo-K-1
Procedure, shortened: as §1

EMC-BAC-2 = system: EMC-BAC-2
Procedure, shortened: as §1

EPLC-272H = system: EPLC-272H
Procedure, shortened: as §1

HCC-15 = system: HCC-15
Procedure, shortened: as §1

HCC-78 = system: HCC-78
Procedure, shortened: as §1

HOP-62 = system: HOP-62
Procedure, shortened: as §1

LXF-289 = system: LXF-289
Procedure, shortened: as §1

NCI-H1666 = system: NCI-H1666
Procedure, shortened: as §1

Q: `C=C1C(=O)O[C@@H](CCCCCCCC)[C@@H]1C(=O)O` [C-75] + CC(C)C[C@H](NC(=O)[C@H](Cc1ccccc1)NC(=O)c1cnccn1)B(O)O [Bortezomib] (partner 0.002 µM) was tested. Which relative viability (ABC-1; first compound 0.08 µM) did it give?
A: Its relative viability is 0.295.

Q: And the relative viability (ABC-1; first compound 0.253 µM)?
A: The relative viability was 0.314.

Q: And the relative viability (ABC-1; first compound 0.8 µM)?
A: Its relative viability is 0.373.

Q: And the relative viability (ABC-1; first compound 2.53 µM)?
A: Its relative viability is 0.178.

Q: And the relative viability (ABC-1; first compound 8 µM)?
A: Its relative viability is 0.234.

Q: And the relative viability (CAL-12T; first compound 0.08 µM)?
A: Its relative viability is 0.949.

Q: What about the relative viability (CAL-12T; first compound 0.253 µM) of the same molecule?
A: Its relative viability is 0.967.

Q: And the relative viability (CAL-12T; first compound 0.8 µM)?
A: The relative viability was 0.758.

Q: What about the relative viability (CAL-12T; first compound 2.53 µM) of the same molecule?
A: Its relative viability is 0.946.

Q: And the relative viability (CAL-12T; first compound 8 µM)?
A: The relative viability was 0.928.

Q: What about the relative viability (COR-L 105; first compound 0.08 µM) of the same molecule?
A: The relative viability was 0.838.

Q: And the relative viability (COR-L 105; first compound 0.253 µM)?
A: The relative viability was 0.627.

Q: And the relative viability (COR-L 105; first compound 0.8 µM)?
A: Its relative viability is 0.779.

Q: What about the relative viability (COR-L 105; first compound 2.53 µM) of the same molecule?
A: The relative viability was 0.809.

Q: What about the relative viability (COR-L 105; first compound 8 µM) of the same molecule?
A: The relative viability was 0.728.

Q: What about the relative viability (ChaGo-K-1; first compound 0.08 µM) of the same molecule?
A: The relative viability was 0.927.

Q: What about the relative viability (ChaGo-K-1; first compound 0.253 µM) of the same molecule?
A: Its relative viability is 0.944.

Q: And the relative viability (ChaGo-K-1; first compound 0.8 µM)?
A: Its relative viability is 0.894.

Q: And the relative viability (ChaGo-K-1; first compound 2.53 µM)?
A: The relative viability was 0.872.

Q: And the relative viability (ChaGo-K-1; first compound 8 µM)?
A: The relative viability was 0.96.

Q: And the relative viability (EMC-BAC-2; first compound 0.08 µM)?
A: The relative viability was 1.1.

Q: What about the relative viability (EMC-BAC-2; first compound 0.253 µM) of the same molecule?
A: The relative viability was 1.05.

Q: And the relative viability (EMC-BAC-2; first compound 0.8 µM)?
A: Its relative viability is 1.11.

Q: And the relative viability (EMC-BAC-2; first compound 2.53 µM)?
A: The relative viability was 0.914.

Q: And the relative viability (EMC-BAC-2; first compound 8 µM)?
A: The relative viability was 1.13.

Q: And the relative viability (EPLC-272H; first compound 0.08 µM)?
A: Its relative viability is 1.03.

Q: And the relative viability (EPLC-272H; first compound 0.253 µM)?
A: The relative viability was 0.845.

Q: And the relative viability (EPLC-272H; first compound 0.8 µM)?
A: The relative viability was 0.792.

Q: And the relative viability (EPLC-272H; first compound 2.53 µM)?
A: Its relative viability is 0.833.

Q: And the relative viability (EPLC-272H; first compound 8 µM)?
A: The relative viability was 0.913.

Q: What about the relative viability (HCC-15; first compound 0.08 µM) of the same molecule?
A: The relative viability was 1.04.

Q: What about the relative viability (HCC-15; first compound 0.253 µM) of the same molecule?
A: Its relative viability is 1.05.

Q: What about the relative viability (HCC-15; first compound 0.8 µM) of the same molecule?
A: The relative viability was 0.944.

Q: And the relative viability (HCC-15; first compound 2.53 µM)?
A: The relative viability was 0.943.

Q: And the relative viability (HCC-15; first compound 8 µM)?
A: The relative viability was 1.01.

Q: What about the relative viability (HCC-78; first compound 0.08 µM) of the same molecule?
A: Its relative viability is 0.507.

Q: What about the relative viability (HCC-78; first compound 0.253 µM) of the same molecule?
A: The relative viability was 0.412.

Q: What about the relative viability (HCC-78; first compound 0.8 µM) of the same molecule?
A: The relative viability was 0.386.

Q: And the relative viability (HCC-78; first compound 2.53 µM)?
A: Its relative viability is 0.423.

Q: What about the relative viability (HCC-78; first compound 8 µM) of the same molecule?
A: The relative viability was 0.472.

Q: And the relative viability (HOP-62; first compound 0.08 µM)?
A: The relative viability was 0.651.

Q: What about the relative viability (HOP-62; first compound 0.253 µM) of the same molecule?
A: The relative viability was 0.676.

Q: And the relative viability (HOP-62; first compound 0.8 µM)?
A: Its relative viability is 0.89.

Q: And the relative viability (HOP-62; first compound 2.53 µM)?
A: Its relative viability is 0.778.

Q: What about the relative viability (HOP-62; first compound 8 µM) of the same molecule?
A: Its relative viability is 0.916.

Q: What about the relative viability (LXF-289; first compound 0.08 µM) of the same molecule?
A: Its relative viability is 0.945.

Q: What about the relative viability (LXF-289; first compound 0.253 µM) of the same molecule?
A: Its relative viability is 0.984.

Q: What about the relative viability (LXF-289; first compound 0.8 µM) of the same molecule?
A: Its relative viability is 0.889.

Q: And the relative viability (LXF-289; first compound 2.53 µM)?
A: The relative viability was 0.951.

Q: What about the relative viability (LXF-289; first compound 8 µM) of the same molecule?
A: The relative viability was 0.989.

Q: And the relative viability (NCI-H1666; first compound 0.08 µM)?
A: Its relative viability is 0.888.

Q: And the relative viability (NCI-H1666; first compound 0.253 µM)?
A: The relative viability was 0.948.

Q: And the relative viability (NCI-H1666; first compound 0.8 µM)?
A: Its relative viability is 0.7.

Q: And the relative viability (NCI-H1666; first compound 2.53 µM)?
A: The relative viability was 0.7.
